# Laboratory results from patent publication US8039668B2, “Naphthalene-based inhibitors of anti-apoptotic proteins” (Burnham Institute for Medical Research, priority 2008, dated 2011).
# Read-outs that look alike come from different tables or passages of the source.
# Legend:
# BCL-XL [1] = molecular target: T1, BCL-XL (Homo sapiens, UniProt Q07817); assay: Isothermal titration calorimetry (ITC); type: binding; conditions: for times more potent than Apogossypol, ITC Bcl-XL: vs Apogossypol
# Protocol: Titrations were performed using a VP-ITC or ITC200 calorimeter from Microcal (Northampton, Mass.). BCL-XL was used at concentrations between 25 and 100 μM in 20 mM sodium phosphate buffer (pH 7.4) and 5-10% DMSO. Titrants were used at concentrations 10-15 fold of that of the protein in the same buffer. Titrations were carried out at 25° C. Data were analyzed using Microcal Origin software provided by the ITC manufacturer (Microcal, Northampton, Mass.).
# Target sequence in this assay (Q07817 whole entry): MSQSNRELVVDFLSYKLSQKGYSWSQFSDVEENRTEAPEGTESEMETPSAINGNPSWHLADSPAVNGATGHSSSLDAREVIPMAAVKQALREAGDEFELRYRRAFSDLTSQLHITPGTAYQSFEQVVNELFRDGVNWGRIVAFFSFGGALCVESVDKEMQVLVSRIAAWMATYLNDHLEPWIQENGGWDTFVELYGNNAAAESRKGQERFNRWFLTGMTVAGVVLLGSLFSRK
# B6Bcl-2 transgenic mice = conditions: for percentage of maximum reduction in spleen weight (maximal biological activity): maximum shrinkage no more than 50%; for Tox: Bcl-2 transgenic mouse, single ip injection 72 μmol/kg
# Summary of the method: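 B6 line BCL-2 transgenic mice (human BCL-2 fused to IgH locus/enhancer, Balb/c background) sacrificed 24 h post-treatment by lethal i.p. Avertin. Spleen removed and weighed, fixed 3 days in z-FIX for H&E and TUNEL histology.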
# Balb/c mice = system: Balb/c mice
# From the text: Upon conclusion of the study, mice were euthanized by CO2, and vital organs were harvested and fixed with z-FIX solution for 3 days at room temperature, rinsed in PBS three times, for further histological evaluation.
# [2] = system: H460 human lung cell line; assay: Cell viability, ATP-LITE assay; type: cell-based; conditions: for IC50: read-out: IC50 inhibiting cell growth, H460; for times more potent than Apogossypol, H460: vs Apogossypol
# Summary of the method: (§1)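 Human cancer lines were seeded at 2000 (H460, H1299), 3000 (PC3) or 10,000 (RS11846) cells/well in F12 or RPMI1640 with 5% FBS. Compounds were added in 0.1% DMSO 24 h after seeding. Viability was read by ATP-LITE luminescence after 72 h and normalized to DMSO controls.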
# [3] = system: Bax/Bak double knockout mouse embryonic fibroblast cells (MEF/DKO); assay: FITC-Annexin V/PI cytotoxicity in Bax/Bak double knockout cells; type: cell-based; conditions: 10 μM
# Protocol: MEF/WT and MEF/DKO cells were seeded in 24-well plate at a seeding density of half a million per well (in 1 ml of DMEM medium supplemented by 10% FCS). […] On the following day, floating cells were pooled with adherent cells harvested after brief incubation with 0.25% Trypsin/EDTA solution (Gibco/In-Vitrogen Inc.). Cells were centrifuged and supernatant was discarded, and cell pellet was re-suspended with 0.2 ml of Annexin-V binding buffer, followed by addition of 1 μl Annexin-FITC and 1 μl PI (propidium iodide). The percentage of viable cells was determined by a 3-color FACSort instrument and data analyzed by Flow-Jo program, scoring Annexin V-negative, PI-negative as viable cells.
# BCL-XL [4] = molecular target: T1, BCL-XL; assay: 1D 1H-NMR binding assay; set-up: key to 1D-^1H NMR: +++, Very Active; ++, Active; +, Mild; −, Weak; conditions: for 1D-^1H NMR: Table 3, BCL-XL 25 μM, compound 200 μM; for 1D ^1H-NMR Binding Assay (BCL-XL): Table 9
# Protocol: By observing the aliphatic region of the spectra, binding could be readily detected due to chemical shift changes in active site methyl groups of Ile, Leu, Thr, Val or Ala (region between −0.8 and 0.3 ppm). All experiments were performed with a 600 MHz spectrometer Bruker Avance 600 equipped with four rf channels and z-axis pulse-field gradients.
# Target sequence in this assay (Q07817 whole entry): as above
# BCL-XL [5] = molecular target: T1, BCL-XL; assay: Competitive fluorescence polarization assay (FPA), Bak BH3 peptide; type: binding; set-up: 100 nM GST-BCL-XL ΔTM protein; conditions: for times more effective than Apogossypol, FP Bcl-XL: vs Apogossypol
# Summary of the method: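 100 nM GST-BCL-XL ΔTM preincubated with compound in PBS pH 7.4 for 10 min at room temperature, then FITC-Bak BH3 peptide added. Polarization read after 10 min. IC50 from sigmoidal dose-response fit; mean ± SE of three independent experiments.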
# Target sequence in this assay (Q07817 1-209 limits assumed): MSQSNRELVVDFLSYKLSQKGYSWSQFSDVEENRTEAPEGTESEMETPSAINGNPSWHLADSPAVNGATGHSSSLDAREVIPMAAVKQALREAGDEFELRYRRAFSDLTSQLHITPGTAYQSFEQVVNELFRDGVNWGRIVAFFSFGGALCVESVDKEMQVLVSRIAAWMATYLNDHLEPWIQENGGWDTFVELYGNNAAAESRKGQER
# [6] = Chemical stability of solid compounds at room temperature (HPLC, LCMS); conditions: in air, Apogossypol in the absence of ascorbic acid
# From the text: The stability of compound was monitored using a combination of HPLC and LCMS.
# [7] = Liver microsomal stability; type: in vitro ADME, rat; conditions: Table 6; rat liver microsomes, 1 h
# From the text: Liver Microsomal Stability.
# Bfl-1 = molecular target: T2, Bfl-1 (Homo sapiens, UniProt Q16548); assay: Competitive fluorescence polarization assay (FPA); type: binding
# T2 sequence (Q16548 1-175): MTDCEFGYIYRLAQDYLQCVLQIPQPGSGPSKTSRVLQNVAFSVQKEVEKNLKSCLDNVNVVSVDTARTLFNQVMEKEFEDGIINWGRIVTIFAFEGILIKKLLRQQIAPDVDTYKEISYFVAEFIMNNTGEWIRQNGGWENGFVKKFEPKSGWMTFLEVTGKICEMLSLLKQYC
# Plasma stability = type: in vitro ADME, rat; conditions: for Plasma stability (T = 1 h): Table 6, rat plasma
# Protocol: Plasma Stability. A 20 μL aliquot of a 10 mM solution in DMSO of the test compound was added to 2.0 mL of heparinized rat plasma (Lampire, P1-150N) to obtain a 100 μM final solution. The mixture was incubated for 1 h at 37.5° C. Aliquots of 100 μL were taken (0, 30 min, 1 h) and diluted with 200 μL of MeOH containing internal standard.
# [8] = system: BP3 human B-cell lymphoma cell line; assay: Annexin V-FITC and propidium iodide assay; type: cell-based; conditions: for EC50: Annexin V-FITC and propidium iodide assay, read-out: EC50 BP3
# Bcl-2 = Bcl-2 (Homo sapiens, UniProt P10415); assay: Competitive fluorescence polarization assay (FPA), Bim BH3 peptide; type: binding
# [9] = PAMPA cell membrane permeability; type: in vitro ADME; conditions: Table 11; Low/Medium, not defined
# From the text: PAMPA is parallel artificial membrane permeation assay.
# RS11846 cell line = assay: Cell viability, ATP-LITE assay; type: cell-based; conditions: Homo sapiens, Table 9; read-out: RS11846 EC50 (ATP-LITE assay)
# Summary of the method: as §1
# PC3ML cells = assay: Cell viability, ATP-LITE assay; type: cell-based, human; conditions: for EC50: Table 3, ATP-LITE assay, heading: EC50 PC3ML, read-out: EC50 PC3ML
# Summary of the method: as §1
# H1299 cell line = assay: Cell viability, ATP-LITE assay; type: cell-based, human
# Summary of the method: as §1
# Mcl-1 = Mcl-1 (Homo sapiens, UniProt Q07820); assay: Competitive fluorescence polarization assay (FPA), Bim BH3 peptide; type: binding
# [10] = system: human lymphoma RS11846 cell line; assay: Apoptosis, Annexin V-FITC and propidium iodide assay; type: cell-based
# BCL-2 transgenic mice = assay: Oral efficacy study in BCL-2 transgenic mice, QDx5 for 3 weeks; conditions: low dose 0.06 mmol/kg oral
# Protocol: The volume of administration was 10 ml/kg, i.e., typically 0.2 mL per 20 gm mouse. […] Age-matched, sex-matched mice were typically dosed 5 times weekly, using a regiment of daily dosing 5 consecutive days (Monday through Friday), followed by resting for 2 days, before resuming dosing. […] At conclusion of treatments, mice were sacrificed via intra-peritoneal (i.p.) injection of 0.7 ml of Avertin and whole blood was collected into Yellow-Top Serum Separator tubes (Becton Dickinson Vacutainer Systems Becton Dickinson and Company, Franklin Lakes, N.J. 07417-1885). Spleens were removed and weighed.
# Age-matched and sex-matched BCL-2 transgenic mice were used for efficacy studies. BCL-2 transgenic mice spontaneously developed low grade B-cell lymphoma as characterized by splenomegaly, as a function of time. In BCL-2 transgenic mice, the disease progression can be divided into two stages; at the first stage, the disease is characterized by splenomegaly as a result of expansion of B-cells in spleen due to over-expressed BCL-2 in B6 mice, and at the second stage, another genetic hit(s) may strike, resulting in disseminated lymphoma as characterized by bulky lymphadenopathy as well as splenomegaly.
# In this study, BCL-2 transgenic mice at the first stage were used for this efficacy study. […] At conclusion of treatment, BCL-2 transgenic mice were sacrificed via intraperitoneal injection of 0.7 ml of avertin (anesthetic solution) and spleen was removed and weighed. Splenocytes were isolated by the use of mouse erythrocyte lysing kit (RD Systems). Total splenocyte count was determined by trypane blue exclusion assays. % B-cell count was determined by FACS analysis after staining cells with CD-5, a B-cell marker.
# Bcl-2, sequence (P10415 whole entry): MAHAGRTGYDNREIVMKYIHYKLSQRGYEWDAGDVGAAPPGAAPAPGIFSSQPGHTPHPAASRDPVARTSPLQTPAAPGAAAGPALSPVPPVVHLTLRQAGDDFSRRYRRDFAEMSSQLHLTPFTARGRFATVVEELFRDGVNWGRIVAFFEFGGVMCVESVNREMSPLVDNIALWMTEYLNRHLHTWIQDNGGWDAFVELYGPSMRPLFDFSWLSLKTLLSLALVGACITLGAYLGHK
# Mcl-1, sequence (Q07820 whole entry): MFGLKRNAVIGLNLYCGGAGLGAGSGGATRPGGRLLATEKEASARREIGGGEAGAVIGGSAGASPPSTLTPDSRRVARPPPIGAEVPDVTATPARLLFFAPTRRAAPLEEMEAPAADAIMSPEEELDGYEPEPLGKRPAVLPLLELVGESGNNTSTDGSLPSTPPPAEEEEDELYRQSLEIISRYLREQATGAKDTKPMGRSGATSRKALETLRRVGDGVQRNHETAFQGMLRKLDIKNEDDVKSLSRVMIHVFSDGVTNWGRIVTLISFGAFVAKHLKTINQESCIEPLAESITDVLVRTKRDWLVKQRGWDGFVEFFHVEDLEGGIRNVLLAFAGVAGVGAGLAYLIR
smiles,measurement,setting,value
"Cc1cc2c(C(=O)NCC(C)c3ccccc3)c(O)c(O)cc2c(O)c1-c1c(C)cc2c(C(=O)NCC(C)c3ccccc3)c(O)c(O)cc2c1O (centres unmarked) [Compound 8r, 1,1′,6,6′,7,7′-hexahydroxy-3,3′-dimethyl-N^5,N^5′-bis(2-phenylpropyl)-2,2′-binaphthyl-5,5′-dicarboxamide]","times more potent than Apogossypol, ITC Bcl-XL",BCL-XL [1],15
same,GI toxicity,"B6Bcl-2 transgenic mice; B6Bcl-2 transgenic (Balb/c background), mouse, in vivo, 42 mg/kg, 24 h",mild signs of GI toxicity
same,average weight loss of mice,"B6Bcl-2 transgenic mice; mouse, in vivo, 42 mg/kg",7.8%
same,percentage of maximum reduction in spleen weight (maximal biological activity),B6Bcl-2 transgenic mice; single ip 72 μmol/kg,85-95%
same,spleen weight reduction,"B6Bcl-2 transgenic mice; single mouse, single ip 72 μmol/kg",more than 40%
same,weight loss,"Balb/c mice; mouse, in vivo, ip, 50 mg/kg",around 13%
same,mortality,"Balb/c mice; single ip 100, 75, 50, 25 and 12.5 mg/kg, 14 days",All mice were alive after 14 days
same,IC50,"[2]; Homo sapiens, NCI-H460",330 nM
same,"times more potent than Apogossypol, H460",[2],7-10
same,MEF/DKO cells killed,[3],20-35%
same,1D-^1H NMR,BCL-XL [4],++
same,"times more effective than Apogossypol, FP Bcl-XL",BCL-XL [5],5
same,degraded after 60 days at room temperature,[6],10%
same,Microsomal Stability (T = 1 h),[7],76%
same,"times more potent than Apogossypol, FP Bfl-1",Bfl-1; vs Apogossypol,approximately 10
same,degraded after 1 hour incubation in rat plasma,Plasma stability; 1 hour,4%
same,Plasma stability (T = 1 h),Plasma stability,96%
same,EC50,"[8]; Homo sapiens, B-cell",660 nM
same,"times more potent than Apogossypol, BP3",[8]; vs Apogossypol,7-10
"Cc1cc2c(C(=O)Cc3ccccc3)c(O)c(O)cc2c(O)c1-c1c(C)cc2c(C(=O)Cc3ccccc3)c(O)c(O)cc2c1O [Compound I, 1,1′-(1,1′,6,6′,7,7′-hexahydroxy-3,3′-dimethyl-2,2′-binaphthyl-5,5′-diyl)bis(2-phenylethanone)]","times more potent than Apogossypol, ITC Bcl-XL",BCL-XL [1],10
same,reduction of spleen weight,"B6Bcl-2 transgenic mice; groups of six mice, compound I",~40%
same,reduction in spleen weight,"B6Bcl-2 transgenic mice; single BCL-2 transgenic mouse, 60 μmmol/kg",40%
same,"times/fold more potent than Apogossypol, FP Bcl-2",Bcl-2; vs Apogossypol,approximately 8
same,Cell Permeability,[9],Medium
same,EC50,RS11846 cell line,2600 nM
same,EC50,"[2]; Homo sapiens, NCI-H460, Table 9, read-out: H460 EC50",680 nM
same,"times more potent than Apogossypol, H460",[2],4-5
same,1D ^1H-NMR Binding Assay (BCL-XL),BCL-XL [4],+++
same,IC50,"BCL-XL [5]; Table 9, read-out: FPA IC50 (BCL-XL)",190 nM
same,"times more effective than Apogossypol, FP Bcl-XL",BCL-XL [5],~20
same,"fold more potent than Apogossypol, PC3ML",PC3ML cells; vs Apogossypol,2-5
same,EC50,"H1299 cell line; Homo sapiens, NCI-H1299, Table 9, read-out: H1299 EC50",3500 nM
same,"times/fold more potent than Apogossypol, FP Mcl-1",Mcl-1; vs Apogossypol,~5
same,EC50,"[10]; Homo sapiens, Table 9, read-out: RS11846 EC50 (Annexin V- and propidium iodide assay)",3000 to 5500 nM
"CCc1ccc(CCNC(=O)c2c(O)c(O)cc3c(O)c(-c4c(C)cc5c(C(=O)NCCc6ccc(CC)cc6)c(O)c(O)cc5c4O)c(C)cc23)cc1 [Compound 8q, N^5,N^5′-bis(4-ethylphenethyl)-1,1′,6,6′,7,7′-hexahydroxy-3,3′-dimethyl-2,2′-binaphthyl-5,5′-dicarboxamide]",Kd,BCL-XL [1],120 nM
same,Tox,B6Bcl-2 transgenic mice,4+
same,IC50,Bcl-2,670 nM
same,EC50,"[2]; Homo sapiens, NCI-H460, Table 3, ATP-LITE assay, read-out: EC50 H460",400 nM
same,IC50,"[2]; Homo sapiens, NCI-H460",400 nM
same,MEF/DKO cells killed,[3],20-35%
same,1D-^1H NMR,BCL-XL [4],+++
same,IC50,BCL-XL [5]; read-out: IC50 FPA Bcl-XL,930 nM
same,degraded after 60 days at room temperature,[6],10%
same,Microsomal Stability (T = 1 h),[7],87%
same,IC50,Bfl-1,1300 nM
same,EC50,"PC3ML cells; Homo sapiens, PC3-ML",1700 nM
same,EC50,"H1299 cell line; Homo sapiens, NCI-H1299, Table 3, ATP-LITE assay, read-out: EC50 H1299",360 nM
same,IC50,"H1299 cell line; Homo sapiens, NCI-H1299, read-out: IC50 cell inhibition, H1299",360 nM
same,Plasma stability (T = 1 h),Plasma stability,94%
same,IC50,Mcl-1,590 nM
same,EC50,"[8]; Homo sapiens, B-cell, Table 3",200 nM
same,IC50,"[8]; Homo sapiens, B-cell, read-out: IC50 inhibiting cell growth, BP3",200 nM
same,EC50,"[10]; Homo sapiens, Annexin V-FITC and propidium iodide assay, read-out: EC50 RS11846",3000 to 5800 nM
same,EC50,"[10]; Homo sapiens, Table 3, Annexin V-FITC and propidium iodide assay, heading: EC50 RS11846, read-out: EC50 RS11846",3000 nM
"CC(=O)O.Cc1cc2c(C(C)C)c(O)c(O)c(C=O)c2c(O)c1-c1c(C)cc2c(C(C)C)c(O)c(O)c(C=O)c2c1O [Gossypol, reference compound]",Tox,B6Bcl-2 transgenic mice,2+
same,percentage of maximum reduction in spleen weight (maximal biological activity),B6Bcl-2 transgenic mice; single ip 72 μmol/kg,40%
same,EC50,"[2]; Table 3, ATP-LITE assay, heading: EC50 H460, read-out: EC50 H460",3000 nM
same,shrinkage of spleen,BCL-2 transgenic mice,induced shrinkage of spleen to a considerable extent but not significantly
same,tolerability,BCL-2 transgenic mice,well tolerated
same,1D-^1H NMR,BCL-XL [4],+++
same,1D ^1H-NMR Binding Assay (BCL-XL),BCL-XL [4],++
same,EC50,PC3ML cells,3100 nM
same,EC50,"H1299 cell line; Table 3, ATP-LITE assay, heading: EC50 H1299, read-out: EC50 H1299",6000 nM
same,EC50,"[8]; Table 3, heading: EC50 BP3",1420 nM
same,EC50,"[10]; Table 3, Annexin V-FITC and propidium iodide assay, heading: EC50 RS11846, read-out: EC50 RS11846",4200 nM
